For one data set, the system named is Panc-1-Luc tumors. Kind of data set: Antitumor activity against orthotopic Panc-1-Luc tumors in nude mice, with tumor histology. It counts as in vivo. The source says:
Nude mice with intrapancreatically injected Panc-1-Luc human pancreatic cancer cells were used as a mouse model of pancreatic cancer. The National Institutes of Health guidelines for animal use and care were followed Animal protocols were approved by the Institutional Animal Care and Use Committee at the University of Texas at Austin. Panc-1-Luc cells (Muniz VP et al. Mol Cancer Res. 2011, 9(7), 867-877) were implanted orthotopically by injecting 1×10^6 cells into (the tail of) the pancreas.
Panc-1-Luc cell suspension was prepared at a concentration of 2×10^7 per ml in a 1:1 (v/v) mixture of DMEM and Matrigel. Tumor cells were then injected into the pancreas of male athymic nude mice (6-8 weeks, Charles River Laboratories, Wilmington, Mass.) following a surgical procedure (Raut CP et al. Cancer Biol Ther. 2004, 3(12), 1217-1224; Bruns CJ et al. Neoplasia. 1999, 1(1), 50-62). Briefly, after mice were anesthetized using isoflurane, the skin and peritoneum were cut open about 1 cm in length using sterile surgical scalpels. The pancreas was pulled out, and 50 μL of the cell suspension were injected slowly until a small bleb was formed. After the needle was withdrawn, a small cotton plug was applied for 10 s. The pancreas was returned back, the peritoneum was sutured with Monocryl™ bioresorbable sutures (Ethicon, Somerville, N.J.), and the skin was then closed using surgical clips. Mice were s.c. injected with buprenorphine (0.1 mg/kg) as a pain killer and were left to heal for one week. Tumor progress was monitored using an IVIS™ Spectrum imaging system (Caliper, Hopkinton, MA). For IVIS imaging, each mouse was i.p. injected with a luciferin solution (15 mg/ml) at a dose of 0.15 mg/g body weight in sterile DPBS, anesthetized with isoflurane, and imaged 10 min after luciferin injection. Four weeks after tumor implantation, mice with tumors were randomized into 3 groups (n=5-7) and intraperitoneally injected (i.p) with Gem-DHA (50 mg/kg, ˜0.087 mmole/kg), gemcitabine HCl (26.1 mg/kg, ˜0.087 mmole/kg), or left untreated. Gem-DHA was in a Tween 80/ethanol/water solution with 5% (w/v) of mannitol, and gemcitabine HCl was in sterile mannitol solution (5%, w/v). Treatments were repeated twice a week for a total 7 doses. Thirty days after the first treatment, mice were sacrificed and tumors were dissected from the pancreas, weighed, and fixed in formalin. The doses were based on the average weight of mice in the same group on the day of injection, and were adjusted only if the weight of an individual mouse was above or below 10% of the average weight.
Tumor tissues were sectioned and stained in the Histology and Tissue Analysis Core at Dell Pediatric Research Institute at the University of Texas at Austin or in the Department of
Molecular Carcinogenesis at the University of Texas M.D. Anderson Cancer Center at Science Park (Smithville, Texas) with hematoxylin & eosin (H&E), antibodies against cleaved lamin-A (apoptosis marker), CD-31 (angiogenesis marker), or Ki-67 (proliferation marker). Slides were then scanned, and images were taken using the ScanScope XT (Aperio Technologies, Vista, CA). […] In addition, several areas of necrosis can also be seen in the centers of the tumors. […] Several pyknotic cells with condensed chromatin can also be seen in tumors in mice that were treated with Gem-DHA.

Data set [1] in a line: Solubility in ethanol or Tween 80. Format: physicochemical.
The next data set relates to Panc-02 tumors. Put plainly: Antitumor activity against s.c. Panc-02 tumors in C57BL/6 mice. Format: in vivo. Here is the method:
Therefore, the in vivo anti-tumor activity of Gem-DHA was also evaluated and compared to that of DHA alone in male C57BL/6 mice (6-8 weeks, Charles River) with subcutaneously (s.c.)
implanted Panc-02 tumors. Briefly, 1×10^6 cells were s.c. injected in the right flank of mice. Sixteen days later, mice were randomized into groups (n=12) and i.p. injected with Gem-DHA (˜55 mg/kg, […]) or DHA (˜33 mg/kg, ˜0.1 mmole/kg). Mice in the control group were i.p. injected with sterile 5% mannitol (w/v). Gem-DHA and DHA was dissolved in a Tween 80/ethanol/water solution with 5% (w/v) of mannitol. The doses were based on the average weight of mice in the same group on the first day of injection. The treatment was repeated twice a week for up to 6 doses. Tumor growth was monitored using a digital caliper, and tumor volume was calculated based on the longest diameter (L1) and the shortest diameter (L2) of each tumor using the equation of V=½×(L1×L2×L2).

Data set [2] concerns NCI-60 human tumor cell lines. Put plainly: NCI-60 DTP Human Tumor Cell Line Screen, single dose. Format: cell-based. Here is the method:
The cytotoxicity of Gem-DHA was also tested using the NCI-60 DTP Human Tumor Cell Line Screen service.

On the set-up of data set [3]: species or system BALB/c mice. The settings on record: female, BALB/c, mouse, in vivo, iv, 75 mg/kg, 1 h. The method, then: The biodistribution of Gem-DHA was further evaluated in healthy BALB/c mice. Briefly, female BALB/c mice (Charles River, 14-16 weeks, n=3) were injected via the tail vein with Gem-DHA in a Tween 80/ethanol/water solution containing 5% (w/v) mannitol at a dose of 75 mg/kg. After 1 h, mice were euthanized to collect pancreas, lung, spleen, liver, heart, and kidneys. Gem-DHA was extracted from the samples and analyzed using HPLC. As a control, mice (n=3) were also injected with gemcitabine HCl (75 mg/kg) in 5% (w/v) mannitol solution and euthanized 1 h later to collect their pancreas. Gemcitabine was extracted using the following method. Briefly, once the pancreas was collected, it was weighed, placed into 0.25 ml of PBS containing 40 μg of tetrahydrouridine (a deoxycytidine deaminase inhibitor) and homogenized using a bead beater. Deoxyuridine (dU, 20 μl of 20 μg/ml) was then added into the homogenate as an internal standard. Acetonitrile was used to precipitate the proteins twice, and gemcitabine content in the supernatant was analyzed using HPLC. […] Therefore, it appeared that Gem-DHA preferred to distribute in pancreatic tissues.

For `CC/C=C\C/C=C\C/C=C\C/C=C\C/C=C\C/C=C\CCC(=O)Nc1ccn(C2OC(CO)C(O)C2(F)F)c(=O)n1` (stereo not shown) [Gem-DHA, 4-(N)-Docosahexaenoyl Difluorodeoxycytidine], in the data set with Panc-1-Luc tumors (compared with tumors of untreated mice), the “H&E histology of tumor tissue” value is reported as “less densely packed cancer cells”. The “Inhibition of growth of Panc-1-Luc tumors” value in the data set with Panc-1-Luc tumors (i.p., ~0.087 mmole/kg (Gem-DHA 50 mg/kg, gemcitabine HCl 26.1 mg/kg), twice a week, 7 doses) is reported as “more effective than the molar equivalent dose of gemcitabine HCl”. Also, the “Percent of Ki-67 positive cells in tumors” value in the data set on Panc-1-Luc tumors (versus mice treated with gemcitabine HCl) is “significantly lower percent of Ki-67 positive cells”. Besides, in the data set on Panc-1-Luc tumors (versus untreated mice), the “Cleaved lamin-A positive staining in tumors” value is “significantly higher percent of positive staining” and the “Micro-vessel density (MVD) in tumors, anti-CD-31 staining” value was “significantly lower than in mice that were not treated”. Besides, the “Solubility in ethanol or Tween 80” value in data set [1] is “freely soluble”. In addition, in the data set with Panc-02 tumors (Panc-02 tumor-bearing mice, dosing regimen tested), the “Tolerability (body weights)” value is reported as “well tolerated”. Besides, the “Inhibition of Panc-02 tumor growth” value with Panc-02 tumors (i.p., ~0.1 mmole/kg, twice a week, up to 6 doses) is reported as “significantly inhibited the tumor growth”. In addition, the “Growth inhibition in NCI-60 screen” value in data set [2] is reported as “inhibited the growth of various types of human tumor cells”. Also, the “Percent of injected compound recovered in each gram of pancreas” value in data set [3] worked out at 0.37±0.18%.

The record behind these values is patent US11883423B2, “Nucleobase analogue derivatives and their applications” (BOARD OF REGENTS, THE UNIVERSITY OF TEXAS SYSTEM, priority 2014, dated 2024).
